Read-outs that look alike come from different tables or passages of the source.
Tests used:
hGSTM1-1 [1] = target: T1, hGSTM1-1 (Homo sapiens, UniProt P09488); test: biochemical; design: made in house; host or cells: E. coli
T1 sequence (P09488 1-218): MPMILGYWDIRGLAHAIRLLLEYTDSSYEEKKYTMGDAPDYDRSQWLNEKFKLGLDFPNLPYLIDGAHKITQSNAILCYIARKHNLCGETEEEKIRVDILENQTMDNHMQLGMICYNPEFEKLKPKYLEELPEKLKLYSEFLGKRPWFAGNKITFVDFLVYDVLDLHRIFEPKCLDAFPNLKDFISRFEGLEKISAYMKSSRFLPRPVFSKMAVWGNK
Description: (§1) Reduced GST assays were performed by monitoring the formation of the conjugate of CDNB (1 mM) with GSH (2.5 mM) at 340 nm (ε = 9.6 mM^−1cm^−1) for 120 s according to a published method. One unit of enzyme activity is defined as the amount of enzyme that produces 1 μmol of product per minute under the assay conditions.
Pesticide screening and inhibition potency evaluation towards hGSTM1-1 were carried out in the assay system described above in the presence of 25 μM pesticide diluted in acetone. During the assay, no measurable pesticide/GSH reaction was detected. The percentage of enzyme inhibition (I) was calculated using the following equation:%I = [(Ro − Ri)/Ro] × 100(3) where Ro is the unit of enzyme activity increase for the uninhibited reaction and Ri is the rate of increase for the inhibited reaction. Both Ri and Ro correspond to the same substrate concentration.

hGSTM1-1 [2] = target: T1, hGSTM1-1; test: IC50 determination, concentration-response in CDNB-GSH assay; type: biochemical; design: made in house; host or cells: E. coli
Description: as §1
[…]. The IC50 values were determined using the program GraphPad Prism (GraphPad Software Inc., Version 7, San Diego, CA, USA).

hGSTM1-1 [3] = target: T1, hGSTM1-1; test: biochemical; conditions: for Effect on inactivation of hGSTM1-1 by GS-ESF: pH 7.4
From the text: Furthermore, the catalytic activity of hGSTM1-1 cannot be regained by extensive dialysis or gel filtration on Sephadex G-25. […] The Kapp calculated by inactivation experiments is in good agreement to that determined by kinetic inhibition analysis.
The rate of inactivation was followed by periodically removing samples for assays of enzymatic activity.

hGSTM1-1 [4] = target: T1, hGSTM1-1; test: Kinetic inhibition study with pirimicarb (Lineweaver-Burk and secondary plots); type: biochemical; design: made in house; host or cells: E. coli; conditions: for Ki: Ki (binding to free enzyme)
Description: Initial velocities for the catalyzed reaction of the isoenzyme hGSTM1-1 with GSH as a variable substrate were performed at 37 °C in a total volume of 1 mL mixture containing 0.75 μg of the isoenzyme GSTM1-1, 0.1 M potassium phosphate buffer (pH 6.5), 1 mM CDNB and different concentrations of GSH in the range of 0.0175–3.75 mM in the presence of different concentrations of the insecticide pirimicarb (0–40 μM). With CDNB as a variable substrate, the reaction mixture total volume (1 mL) contained 0.75 μg of the isoenzyme GSTM1-1, 0.1 M potassium phosphate buffer (pH 6.5), 1 mM GSH and CDNB in the concentration range of 0.015–1.5 mM in the presence of different concentrations of pirimicarb (0–30 μM). The kinetic parameters were determined using the computer program GraphPad Prism 7.

[5] = 25 μM pesticide, CDNB (1 mM)-GSH (2.5 mM) assay, mean of three assays, variation less than 5%, read-out: Inhibition (%)
[6] = 37 °C, pH 6.5, CDNB-GSH assay, read-out: IC50
[7] = 25 μM pesticide, CDNB (1 mM)-GSH (2.5 mM) assay, mean of three assays, variation less than 5%
[8] = GSH as variable substrate, 37 °C, pH 6.5

| Compound | inhibition at 25 µM (hGSTM1-1 [1]; [5]) [%] | other results |
| --- | --- | --- |
| CC1(C)[C@H](C(=O)O[C@H](C#N)c2cccc(Oc3ccccc3)c2)[C@@H]1/C=C(\Cl)C(F)(F)F (racemic) [Lambda-Cyhalothrin] | 0 |  |
| CCOCN(C(=O)CCl)c1c(C)cccc1CC [Acetochlor, acetochlor] | 13.8 |  |
| CCc1cccc(CC)c1N(COC)C(=O)CCl [Alachlor, alachlor] | 32 |  |
| CC1(C)C(C=C(Cl)Cl)C1C(=O)OC(C#N)c1cccc(Oc2ccccc2)c1 (stereo not drawn) [Alpha cypermethrin] | 0 |  |
| CCNc1nc(Cl)nc(NC(C)C)n1 [Atrazine] | 28.7 |  |
| O=C(Nc1ccccc1-c1ccc(Cl)cc1)c1cccnc1Cl [Boscalid] | 20.4 |  |
| CCCCOCN(C(=O)CCl)c1c(CC)cccc1CC [Butachlor, butachlor] | 35.3 | IC50 (hGSTM1-1 [2]; [6]): 236 ± 4.5 µM |
| CNC(=O)Oc1cccc2ccccc12 [Carbaryl] |  | inhibition at 25 µM (hGSTM1-1 [1]): 0% |
| COC(=O)Nc1nc2ccccc2[nH]1 [Carbedazim] |  | Inhibition (%) (hGSTM1-1 [1]; [7]): 8.00% |
| CNC(=O)Oc1cccc2c1OC(C)(C)C2 [Carbofuran] | 0 |  |
| CCOP(=S)(OCC)Oc1nc(Cl)c(Cl)cc1Cl [Chlorpyrifos] | 0 |  |
| CN/C(=N\[N+](=O)[O-])NCc1cnc(Cl)s1 [Clothianidin] |  | inhibition at 25 µM (hGSTM1-1 [1]): 0% |
| CC1(C)[C@H](C(=O)O[C@H](C#N)c2cccc(Oc3ccccc3)c2)[C@@H]1C=C(Br)Br [Deltamethrin] | 0 |  |
| CCOC(=O)Nc1cccc(OC(=O)Nc2ccccc2)c1 [Desmedipham] | 0 |  |
| COP(=O)(OC)OC=C(Cl)Cl [Dichloros] |  | Inhibition (%) (hGSTM1-1 [1]; [7]): 1.48% |
| O=C(NC(=O)c1c(F)cccc1F)Nc1ccc(Cl)cc1 [Diflubenzuron] | 0 |  |
| CN(C)C(=O)Nc1ccc(Cl)c(Cl)c1 [Diuron] | 15 |  |
| O=S1OCC2C(CO1)C1(Cl)C(Cl)=C(Cl)C2(Cl)C1(Cl)Cl (stereo not drawn) [Endosulfan] | 14.7 |  |
| CSC1=N[C@@](C)(c2ccccc2)C(=O)N1Nc1ccccc1 [Fenamidone] | 0 |  |
| CC1(C(=O)Nc2ccc(O)c(Cl)c2Cl)CCCCC1 [Fenhexamid, fenhexamid] | 35.3 | IC50 (hGSTM1-1 [2]; [6]): 278 ± 14.5 µM |

| Compound | inhibition at 25 µM (hGSTM1-1 [1]; [5]) [%] | other results |
| --- | --- | --- |
| CC(C)C(C(=O)OC(C#N)c1cccc(Oc2ccccc2)c1)c1ccc(Cl)cc1 (stereo not drawn) [Fenvalerate] | 0 |  |
| O=[N+]([O-])c1ccc(Oc2ccc(C(F)(F)F)cc2[N+](=O)[O-])cc1 [Fluorodifen] | 16.7 |  |
| CO/N=C(/C1=NOCCO1)c1ccccc1Oc1ncnc(Oc2ccccc2Cl)c1F [Fluoxastrobin] | 18.5 |  |
| CCO[PH](=O)O [Fosetyl-Al] |  | Inhibition (%) (hGSTM1-1 [1]; [7]): 0.66% |
| O=[N+]([O-])NC1=NCCN1Cc1ccc(Cl)nc1 [Imidacloprid] | 0 |  |
| CC(C)NC(=O)N1CC(=O)N(c2cc(Cl)cc(Cl)c2)C1=O [Iprodione] | 19.5 |  |
| CO/N=C(/C(=O)OC)c1ccccc1COc1ccccc1C [Kresoxim-methyl] | 14.5 |  |
| Cl[C@H]1[C@H](Cl)[C@@H](Cl)[C@@H](Cl)[C@H](Cl)[C@H]1Cl [Lindane] | 13 |  |
| CCOC(=O)CC(SP(=S)(OC)OC)C(=O)OCC (stereo not drawn) [Malathion, malathion] | 12.7 |  |
| C#CCOc1ccc(CCNC(=O)C(OCC#C)c2ccc(Cl)cc2)cc1OC (stereo not drawn) [Mandipropamid] |  | Inhibition (%) (hGSTM1-1 [1]; [7]): 21.47% |
| COCC(=O)N(c1c(C)cccc1C)C(C)C(=O)OC (stereo not drawn) [Metalaxyl] | 19.8 |  |
| Cc1cccc(C)c1N(Cn1cccn1)C(=O)CCl [Metazachlor, metazachlor] | 19.7 |  |
| CNC(=O)ON=C(C)SC [Methomyl] | 20 |  |
| CCc1cccc(C)c1N(C(=O)CCl)C(C)COC (stereo not drawn) [Metolachlor] | 9.2 |  |
| CNC(=O)CSP(=O)(OC)OC [Omethoate] |  | inhibition at 25 µM (hGSTM1-1 [1]): 3.21% |
| CC1(C)C(C=C(Cl)Cl)C1C(=O)OCc1cccc(Oc2ccccc2)c1 (stereo not drawn) [Permethrin] | 11.2 |  |
| COC(=O)Nc1cccc(OC(=O)Nc2cccc(C)c2)c1 [Phenmedipham] | 16 |  |
| CO/C=C(/C(=O)OC)c1ccccc1COc1cccc(C(F)(F)F)n1 [Picoxystrobin] |  | Inhibition (%) (hGSTM1-1 [1]; [7]): 10.56% |
| Cc1nc(N(C)C)nc(OC(=O)N(C)C)c1C [Pirimicarb, pirimicarb] | 52.3 | Kd (hGSTM1-1 [3]): 15.5 ± 1.2 µM; Effect on inactivation of hGSTM1-1 by GS-ESF (hGSTM1-1 [3]): diminish the observed rate of enzyme inactivation; Ki' (binding to enzyme-CDNB complex) (hGSTM1-1 [4]; CDNB as variable substrate, 37 °C, pH 6.5, 1/Vmax app versus [Pirimicarb]): 44.7 ± 1.14 µM; Inhibition pattern (hGSTM1-1 [4]; GSH as variable substrate): mixed-type inhibition; Ki' (binding to enzyme-GSH complex) (hGSTM1-1 [4]; [8]): 35.97 ± 2.57 µM; Ki (hGSTM1-1 [4]; CDNB as variable substrate, 37 °C, pH 6.5, Slope versus [Pirimicarb]): 37.7 ± 1.03 µM; Ki (hGSTM1-1 [4]; [8]): 24.5 ± 2.86 µM; Inhibition pattern (hGSTM1-1 [4]; towards CDNB): mixed-type inhibition; IC50 (hGSTM1-1 [2]): 17.5 ± 1.75 µM |
| CC(C)N(C(=O)CCl)c1ccccc1 [Propachlor, propachlor] | 11.2 |  |

| Compound | inhibition at 25 µM (hGSTM1-1 [1]; [5]) [%] | other results |
| --- | --- | --- |
| OC(Cc1ccccc1Cl)(Cn1nc[nH]c1=S)C1(Cl)CC1 (stereo not drawn) [Prothioconazole] | 26.5 |  |
| Cc1cc(C)nc(Nc2ccccc2)n1 [Pyrimethanil] | 7.49 |  |
| N[C@@H](CCC(=O)N[C@@H](CSCc1ccc([N+](=O)[O-])cc1)C(=O)NCC(=O)O)C(=O)O [S-nitrobenzyl-GSH, S-nitrobenzyl-glutathione] |  | Effect on inactivation of hGSTM1-1 by GS-ESF (hGSTM1-1 [3]): diminish the observed rate of enzyme inactivation |
| CCC(C)(C)C(=O)OC1=C(c2ccc(Cl)cc2Cl)C(=O)OC12CCCCC2 [Spirodiclofen] |  | Inhibition (%) (hGSTM1-1 [1]; [7]): 10.20% |
| Cc1cc(C)c(C2=C(OC(=O)CC(C)(C)C)C3(CCCC3)OC2=O)c(C)c1 [Spiromesifen] |  | Inhibition (%) (hGSTM1-1 [1]; [7]): 1.27% |
| CCOC(=O)OC1=C(c2cc(C)ccc2C)C(=O)N[C@]12CC[C@@H](OC)CC2 [Spirotetramat] | 29.3 |  |
| O=C(NC(=O)c1c(F)cccc1F)Nc1cc(Cl)c(F)c(Cl)c1F [Teflubenzuron] | 11.2 |  |
| CCNc1nc(Cl)nc(NC(C)(C)C)n1 [Terbuthylazine] | 12 |  |
| N#C/N=C1\SCCN1Cc1ccc(Cl)nc1 [Thiacloprid] |  | inhibition at 25 µM (hGSTM1-1 [1]): 10.7% |
| COP(=S)(OC)Oc1c(Cl)cc(C)cc1Cl [Tolclofos-methyl] |  | inhibition at 25 µM (hGSTM1-1 [1]): 9.32% |
| CC(C)(C)C(O)C(Oc1ccc(Cl)cc1)n1cncn1 (stereo not drawn) [Triadimenol] | 0 |  |
| CON=C(C(=O)OC)c1ccccc1CON=C(C)c1cccc(C(F)(F)F)c1 [Trifloxystrobin] | 2.88 |  |
| O=C(NC(=O)c1ccccc1Cl)Nc1ccc(OC(F)(F)F)cc1 [Triflumuron] | 22.7 |  |
| C=CC1(C)OC(=O)N(c2cc(Cl)cc(Cl)c2)C1=O (stereo not drawn) [Vinclozolin] | 14.3 |  |
| CCC(C)(NC(=O)c1cc(Cl)c(C)c(Cl)c1)C(=O)CCl (stereo not drawn) [Zoxamide] | 20 |  |
| O=S1OC[C@@H]2[C@H](CO1)[C@@]1(Cl)C(Cl)=C(Cl)[C@]2(Cl)C1(Cl)Cl (stereo partly drawn) [alpha Endosulfan] |  | Inhibition (%) (hGSTM1-1 [1]; [7]): 16.66% |
| Imidachlor |  | Inhibition (%) (hGSTM1-1 [1]; [7]): 10.14% |
| Spinosad |  | Inhibition (%) (hGSTM1-1 [1]; [7]): 0% |
